Structures can show the parent of a compound that is named as a salt.
How the values were obtained:
[1] = target: T1, PKCθ (Homo sapiens, UniProt Q04759); assay: In vitro enzyme assay (time-resolved fluorescence kinase assay), PKCθ, 100 μM ATP; format: biochemical
T1 construct: His6; purchased Millipore; host or cells: baculovirus in Sf21 cells
Procedure, shortened: (§1)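 Read-out was time-resolved fluorescence, corrected for a minus-enzyme blank and converted to percent activity relative to enzyme without drug. They were stopped with EDTA.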

[2] = tested on: CD3/CD28 induced IL-2 in human T-Blasts; assay: T-Blasts CD3/CD28 induced IL-2 assay; format: cell-based; details: read-out: CD3/CD28-stimulated IL2 in T-blasts EC50
Procedure, shortened: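 IL-2 in supernatants read after 24 h 37° C stimulation of human PHA T-blasts (2×10^5/well) with anti-CD3/anti-CD28 at 5 μg/mL final. Duplicate eight-point, 1/3-step compound series added 30 min before stimulus; residual cells checked by MTT for toxicity.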

[3] = target: T2, PKCα (Homo sapiens, UniProt P17252); assay: In vitro enzyme assay (time-resolved fluorescence kinase assay), PKCα, 100 μM ATP; format: biochemical; details: 100 μM ATP; read-out: PKCα enzyme IC50
T2 construct: His6; purchased Millipore; host or cells: baculovirus in Sf21 cells
Procedure, shortened: as §1

T1 sequence (Q04759 whole entry): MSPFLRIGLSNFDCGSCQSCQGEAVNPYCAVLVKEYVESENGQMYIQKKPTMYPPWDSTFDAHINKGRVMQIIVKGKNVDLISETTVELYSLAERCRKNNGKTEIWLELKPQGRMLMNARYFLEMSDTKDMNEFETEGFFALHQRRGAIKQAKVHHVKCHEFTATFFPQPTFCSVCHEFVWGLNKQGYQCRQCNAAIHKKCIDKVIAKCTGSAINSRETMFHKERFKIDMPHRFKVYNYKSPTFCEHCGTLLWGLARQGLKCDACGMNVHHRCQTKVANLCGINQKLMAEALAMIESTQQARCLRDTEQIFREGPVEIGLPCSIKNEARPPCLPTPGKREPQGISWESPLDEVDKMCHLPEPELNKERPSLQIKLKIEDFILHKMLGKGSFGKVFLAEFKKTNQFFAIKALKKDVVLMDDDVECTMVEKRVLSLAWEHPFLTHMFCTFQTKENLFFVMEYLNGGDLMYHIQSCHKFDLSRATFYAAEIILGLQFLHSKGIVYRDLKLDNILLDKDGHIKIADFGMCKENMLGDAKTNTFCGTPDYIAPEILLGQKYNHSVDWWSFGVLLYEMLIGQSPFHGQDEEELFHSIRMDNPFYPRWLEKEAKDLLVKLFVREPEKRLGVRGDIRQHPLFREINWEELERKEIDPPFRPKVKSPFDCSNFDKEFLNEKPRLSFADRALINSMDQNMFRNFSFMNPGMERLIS

IC50 [1] | EC50 [2] | IC50 [3] | SMILES
< 250 nM | < 250 nM | 250 to 1000 nM | C[C@@H]1C(=O)NN=C2COc3cc(-c4ccccc4CO)c(N(C)C4(C)CN(C)C4)cc3N21 [Example 176]
< 250 nM | < 250 nM | 1000 to 10000 nM | Cc1cccc(-c2cc3c(cc2NC2CNC2)N2C(=NNC(=O)C2C)CO3)c1 (racemic) [Example 22]
< 250 nM | 250 to 1000 nM | 1000 to 10000 nM | C[C@@H]1C(=O)NN=C2COc3cc(-c4ccco4)c([C@@H](C)C4(C)CN(C)C4)cc3N21 [Example 136]
< 250 nM | 250 to 1000 nM | 1000 to 10000 nM | CC1C(=O)NN=C2COc3ccc(N4CCCC4CN)cc3N21 (stereo not drawn) [Example 117, 6-(2-Aminomethyl-pyrrolidin-1-yl)-4-methyl-2,10-dihydro-9-oxa-1,2,4a-triaza-phenanthren-3-one trifluoroacetic acid]
< 250 nM | 250 to 1000 nM | 1000 to 10000 nM | CC1C(=O)NN=C2COc3ccc(C4CCNCC4(C)C)cc3N21 (stereo not drawn) [Example 74]
< 250 nM | < 250 nM | 1000 to 10000 nM | CC1C(=O)NN=C2COc3cc(-c4ccc(F)cc4)c(NC4CNC4)cc3N21 (racemic) [Example 50]
< 250 nM | < 250 nM | 250 to 1000 nM | CC1C(=O)NN=C2CCc3ccc(NC4CNC4)cc3N21 (stereo not drawn) [Example 108, 9-(Azetidin-3-ylamino)-1-methyl-5,6-dihydro-1H-[1,2,4]triazino[4,3-a]quinolin-2(3H)-one hydrochloric acid]
< 250 nM | < 250 nM | 1000 to 10000 nM | CC1C(=O)NN=C2COc3cc(-c4ccc(Cl)cc4Cl)c(NC4CNC4)cc3N21 (racemic) [Example 43]
< 250 nM | < 250 nM | 250 to 1000 nM | C[C@@H]1C(=O)NN=C2COc3cc(-c4ccccc4F)c(N4CCN(C)[C@@H](C)C4)cc3N21 [Example 232]
< 250 nM | < 250 nM | < 250 nM | C[C@@H]1C(=O)NN=C2COc3cc(-c4ccccc4F)c(N4C[C@H](C)N(C)C[C@@H]4C)cc3N21 [Example 247]
250 to 1000 nM | 250 to 1000 nM | 1000 to 10000 nM | CC(C)c1cc2c(cc1C1CCNCC1)N1C(=NNC(=O)C1C)CO2 (stereo not drawn) [Example 76, 7-Isopropyl-4-methyl-6-piperidin-4-yl-2,10-dihydro-9-oxa-1,2,4a-triaza-phenanthren-3-one trifluoroacetic acid]
250 to 1000 nM | 250 to 1000 nM | 1000 to 10000 nM | CC(C)c1cc2c(cc1[C@@H](C)C1(C)CNC1)N1C(=NNC(=O)[C@H]1C)CO2 [Example 133, (R)-7-Isopropyl-4-methyl-6-[(R)-1-(3-methyl-azetidin-3-yl)-ethyl]-2,10-dihydro-9-oxa-1,2,4a-triaza-phenanthren-3-one hydrochloric acid]
< 250 nM | < 250 nM | 250 to 1000 nM | C[C@@H]1C(=O)NN=C2COc3cc(-c4ccccc4F)c(N(C)[C@]4(C)CCN(C)C4)cc3N21 (single isomer, unassigned) [Example 198-4]
< 250 nM | < 250 nM | 1000 to 10000 nM | CC1C(=O)NN=C2COc3cc(-c4ccccc4Cl)c(NC4CNC4)cc3N21 (racemic) [Example 44]
< 250 nM | < 250 nM | 250 to 1000 nM | C[C@@H]1C(=O)NN=C2COc3cc(-c4ccccc4CO)c([C@@H](C)C4(C)CN(C)C4)cc3N21 [Example 135]
< 250 nM | < 250 nM | 250 to 1000 nM | C[C@@H]1C(=O)NN=C2COc3cc(-c4ccccc4F)c(N(C)C4(C)CN(C[C@@H](C)O)C4)cc3N21 [Example 189]
250 to 1000 nM | 1000 to 10000 nM | 1000 to 10000 nM | C[C@H]1C(=O)NN=C2COc3cc(F)c(NC4CNC4)cc3N21 (single isomer, unassigned) [Example 56-1, trifluoroacetic acid]
< 250 nM | 250 to 1000 nM | 1000 to 10000 nM | CCc1cn(C2(C)CNC2)c2cc3c(cc12)OCC1=NNC(=O)[C@@H](C)N13 [Example 156, (R)-8-Ethyl-1-methyl-10-(3-methyl-azetidin-3-yl)-3,5-dihydro-10H-6-oxa-3,4,10,11b-tetraaza-cyclopenta[b]phenanthren-2-one hydrochloride]
250 to 1000 nM | 250 to 1000 nM | 1000 to 10000 nM | C[C@@H]1C(=O)NN=C2COc3cc(-c4ccccc4F)c(N(C)C4(C)CN(C(=O)C(F)(F)F)C4)cc3N21 [Example 186]
< 250 nM | < 250 nM | 1000 to 10000 nM | CC1C(=O)NN=C2COc3cc(-c4ccccc4)c(OC4CNC4)cc3N21 (stereo not drawn) [Example 66]
< 250 nM | < 250 nM | 250 to 1000 nM | CC(C)c1cc2c(cc1[C@@H]1CCN(C)C[C@@H]1C)N1C(=NNC(=O)[C@H]1C)CO2 [Example 244]
< 250 nM | 250 to 1000 nM | 1000 to 10000 nM | Cc1ccc(F)c(-c2cc3c(cc2NC2CNC2)N2C(=NNC(=O)C2C)CO3)c1 (racemic) [Example 31]
< 250 nM | < 250 nM | 250 to 1000 nM | C[C@@H]1CN(C)[C@@H](C)CN1c1cc2c(cc1-c1ccccc1F)OCC1=NNC(=O)[C@@H](C)N12 [Example 246, (R)-7-(2-Fluoro-phenyl)-4-methyl-6-((2R,5S)-2,4,5-trimethyl-piperazin-1-yl)-2,10-dihydro-9-oxa-1,2,4a-triaza-phenanthren-3-one]

SMILES | IC50 [1] | EC50 [2] | IC50 [3]
C[C@@H]1C(=O)NN=C2COc3cc(-c4ccccc4F)c(N4[C@@H]5CC[C@H]4CN(C)C5)cc3N21 [Example 235] | < 250 nM | 250 to 1000 nM | 250 to 1000 nM

— patent US9115151B2, “Substituted 2,10-dihydro-9-oxa-1,2,4A-triazaphenanthren-3-ones and uses thereof” (AbbVie Inc., priority 2012, dated 2015)
